The record followed here is ChEMBL document CHEMBL1201862, “PubChem BioAssay data set” (2004).

Some test systems named below: UACC-62; K562; MDA-N; U-251; KM12; A549; HCT-15; SN12C; RPMI-8226; MCF7; COLO 205; SW-620; A498; UO-31; TK-10; MDA-MB-231; PC-3; OVCAR-5; HCC 2998; NCI-H522.
Holding throughout (assay): NCI anticancer screen, dose series, 48 h

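Step 1: Grow cells in 96-well plates. Step 2: Expose to compound for 48 hours at 5 concentrations. Step 3: Interpolate endpoints linearly; if unreached, use highest concentration. The concentration for 50% growth inhibition is given as GI50.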 Activity calls are given as the source filed them. No stated cut-off is given here; in the data, active = GI50 up to about 1.1 µM and inactive = higher. Bounds are passed on as bounds.

As to `Cc1cc(C)c2c(c1)C1=NCCN1C2(O)c1ccc(Cl)cc1` (centres undefined), the GI50 with UACC-62 is 15.9 µM (inactive); in the test on K562 it was 19.1 µM (inactive); with MDA-N, 15.1 µM (inactive); with U-251 it was 17.7 µM (inactive); in the test on KM12 it was 15.3 µM (inactive); with A549, 18.2 µM (inactive). Further, the GI50 is 17.2 µM with HCT-15; 16.5 µM (inactive) in the test with SN12C; 13.6 µM (inactive) in the test with RPMI-8226; 18 µM (inactive) in the test on MCF7; 15.1 µM (inactive) in the test on COLO 205; 15.6 µM (inactive) in the test with SW-620. Also, the GI50 in the test on A498 was 15.2 µM (inactive); with UO-31, 13.9 µM (inactive); in the test on TK-10, 2.79 µM (inactive); in the test on MDA-MB-231, 14.6 µM (inactive); in the test on PC-3, 16 µM (inactive); in the test with OVCAR-5, 16.5 µM (inactive).

As to `OC1CCN2Cc3ccccc3N=C12` (centres undefined), the GI50 in the test on UACC-62, in the test on K562, with MDA-N, in the test on U-251, in the test on KM12 and in the test with A549 was > 100 µM (inactive) in each case. For the same compound, the GI50 was over 100 µM in the test with HCT-15; > 100 µM (inactive) in the test with HCC 2998; > 100 µM (inactive) with SN12C; > 100 µM (inactive) in the test with RPMI-8226; > 100 µM (inactive) in the test on MCF7; > 100 µM (inactive) in the test with COLO 205. The GI50 in the test with SW-620, in the test with A498, in the test with UO-31, in the test on TK-10, with MDA-MB-231 and in the test with PC-3 was > 100 µM (inactive) each time. The GI50 with OVCAR-5 was > 100 µM (inactive).

`CN1CCC2(c3ccccc3)CC(=O)/C(=C/c3ccc(Cl)c(Cl)c3)C1C2.[O-][Cl+3]([O-])([O-])O` (centres undefined): the GI50 in the test on UACC-62 was 1.51 µM (inactive); in the test on K562, 2.52 µM (inactive); in the test with MDA-N it was 4.42 µM (inactive); in the test with U-251 it was 1.82 µM (inactive); in the test with NCI-H522 it was 1.84 µM (inactive); in the test on KM12, 1.94 µM (inactive). Besides, the GI50 is 3.4 µM (inactive) in the test with A549; 2.14 µM in the test with HCT-15; 1.85 µM (inactive) in the test with SN12C; 2.29 µM (inactive) with RPMI-8226; 3.4 µM (inactive) in the test with MCF7; 1.95 µM (inactive) in the test on COLO 205. For the same compound, the GI50 in the test on SW-620 was 2.59 µM (inactive); in the test with A498, 5.2 µM (inactive); with UO-31, 1.95 µM (inactive); with TK-10, 3.71 µM (inactive); in the test with MDA-MB-231 it was 1.69 µM (inactive); with PC-3, 1.96 µM (inactive). The GI50 in the test with OVCAR-5 is 2.35 µM (inactive).

Take `NNC(=O)c1ccccc1Nc1ccccc1C(=O)NN`: the GI50 with UACC-62, in the test on K562, with MDA-N, in the test on U-251, with NCI-H522 and in the test with KM12 was > 100 µM (inactive) in each case. Also, the GI50 is > 100 µM (inactive) with A549; over 100 µM in the test on HCT-15; > 100 µM (inactive) in the test with HCC 2998; > 100 µM (inactive) in the test on SN12C; > 100 µM (inactive) in the test with RPMI-8226; > 100 µM (inactive) in the test with MCF7. The GI50 with COLO 205, in the test with SW-620, in the test on UO-31, with TK-10, in the test on MDA-MB-231 and with PC-3 was > 100 µM (inactive) throughout. Further, the GI50 in the test with OVCAR-5 was > 100 µM (inactive).

In the case of `CCOC(=O)c1cc(C2=C(S)N(CC(C)CC)CC2)c(C(=O)CC)[nH]1` (centres undefined), the GI50 with UACC-62 was 16.6 µM (inactive); in the test on K562, 10 µM (inactive); in the test on MDA-N it was 14.3 µM (inactive); with U-251, 13.1 µM (inactive); in the test on NCI-H522, 14.9 µM (inactive); in the test with KM12, 16.9 µM (inactive). Besides, the GI50 with A549 is 25.1 µM (inactive); with HCT-15, 10.2 µM; in the test with SN12C, 18.7 µM (inactive); with RPMI-8226, 5.36 µM (inactive); in the test with MCF7, 21.3 µM (inactive); in the test on COLO 205, 11 µM (inactive). Moreover, the GI50 is 6.01 µM (inactive) in the test on SW-620; 15.6 µM (inactive) with A498; 16.8 µM (inactive) in the test on UO-31; 15.3 µM (inactive) in the test on TK-10; 15.6 µM (inactive) in the test with MDA-MB-231; 19.7 µM (inactive) in the test with PC-3.

Take `NS(=O)(=O)c1cccc(NC(=S)NC(=O)Nc2ccc(Cl)c(Cl)c2)c1`: the GI50 was 13.3 µM (inactive) in the test on UACC-62; 16.2 µM (inactive) in the test on K562; 18.6 µM (inactive) in the test with MDA-N; 22.3 µM (inactive) with U-251; 12.8 µM (inactive) in the test on NCI-H522; 15.8 µM (inactive) in the test with KM12. The GI50 with A549 was 20.5 µM (inactive); in the test with HCT-15 it was 17.3 µM; in the test on SN12C, 17.7 µM (inactive); with RPMI-8226 it was 16.9 µM (inactive); in the test on MCF7 it was 18.3 µM (inactive); in the test on COLO 205 it was 20 µM (inactive). Also, the GI50 with SW-620 is 19 µM (inactive); in the test with A498, 12.7 µM (inactive); in the test on UO-31 it was 16.6 µM (inactive); in the test with TK-10 it was 32.5 µM (inactive); in the test on MDA-MB-231 it was 17.7 µM (inactive); with PC-3 it was 22.4 µM (inactive). The GI50 in the test on OVCAR-5 was 25 µM (inactive).

In the case of `NC(Cc1nnn[nH]1)C(=O)O` (centres undefined), the GI50 in the test on UACC-62, with K562, in the test with MDA-N, in the test on U-251, in the test on NCI-H522 and in the test on KM12 was > 100 µM (inactive) throughout. Moreover, the GI50 with A549 is > 100 µM (inactive); in the test with HCT-15 it was over 100 µM; in the test with SN12C it was > 100 µM (inactive); in the test with RPMI-8226, > 100 µM (inactive); with MCF7 it was > 100 µM (inactive); in the test on COLO 205 it was > 100 µM (inactive). Also, the GI50 in the test on SW-620, in the test on A498, with TK-10, in the test on MDA-MB-231, with PC-3 and in the test with OVCAR-5 was > 100 µM (inactive) each time.

On to `O=C(c1ccccc1)c1ccc2[nH]c(-c3c(Cl)c(Cl)c(Cl)c(Cl)c3-c3nnc(-c4ccccc4)o3)nc2c1`, for which the GI50 was 4.67 µM (inactive) in the test with K562; 3.45 µM (inactive) in the test on MDA-N; 31.6 µM (inactive) with U-251; 6.28 µM (inactive) in the test on NCI-H522; 22.3 µM (inactive) in the test on KM12; 25.8 µM (inactive) with A549. Also, the GI50 is 7.01 µM in the test with HCT-15; 22.4 µM (inactive) in the test on SN12C; 12.4 µM (inactive) in the test with RPMI-8226; 9.79 µM (inactive) in the test with MCF7; 18.3 µM (inactive) in the test with COLO 205; 29.7 µM (inactive) in the test on SW-620. Moreover, the GI50 with A498 was 12.1 µM (inactive); in the test on UO-31, 49.3 µM (inactive); in the test on TK-10, 51.1 µM (inactive); with MDA-MB-231, 25.4 µM (inactive); with PC-3 it was 20.7 µM (inactive); in the test on OVCAR-5, 67.5 µM (inactive).

With `CCN(CC)c1ccc(C2Nc3ccc4ccccc4c3C3=C2C(=O)CCC3)cc1` (centres undefined), the GI50 with UACC-62 is 24.7 µM (inactive); in the test with K562, > 100 µM (inactive); in the test on MDA-N it was > 100 µM (inactive); in the test with U-251 it was 14.9 µM (inactive); with KM12 it was > 100 µM (inactive); with A549, 26.7 µM (inactive). For the same compound, the GI50 in the test on HCT-15 was over 100 µM; in the test on HCC 2998, > 100 µM (inactive); in the test with SN12C it was 42 µM (inactive); in the test with RPMI-8226, > 100 µM (inactive); with MCF7, 40.3 µM (inactive); with COLO 205, > 100 µM (inactive). Moreover, the GI50 with SW-620 is > 100 µM (inactive); with A498, 45.4 µM (inactive); in the test with UO-31, 26.1 µM (inactive); in the test with MDA-MB-231, 11.7 µM (inactive); with PC-3 it was 39.3 µM (inactive); with OVCAR-5, > 100 µM (inactive).

With `CC(C)(C)c1cc(C(C)(C)C)c(SS(=O)(=O)O)c(O)c1O`, the GI50 with UACC-62 is 21.5 µM (inactive); in the test on K562, 0.246 µM (active); in the test on MDA-N, 30.1 µM (inactive); in the test with U-251, 27.2 µM (inactive); in the test on KM12, 41.8 µM (inactive); in the test on A549, 9.33 µM (inactive). Besides, the GI50 is 48.3 µM in the test with HCT-15; 67 µM (inactive) with SN12C; 21.6 µM (inactive) in the test on RPMI-8226; 36.3 µM (inactive) in the test with MCF7; 46.5 µM (inactive) in the test on COLO 205; 51.4 µM (inactive) in the test on SW-620. Moreover, the GI50 in the test with A498 is 54.7 µM (inactive); with UO-31, > 100 µM (inactive); in the test with TK-10, > 100 µM (inactive); with MDA-MB-231, 52.7 µM (inactive); in the test on PC-3 it was 50.1 µM (inactive); in the test with OVCAR-5 it was > 100 µM (inactive).

Regarding `CC1=CC(=O)/C(=C/NC(=S)NCCc2ccccc2)C(=O)O1`, the GI50 is > 100 µM (inactive) in the test on MDA-N; > 100 µM (inactive) in the test with U-251; > 100 µM (inactive) with KM12; > 100 µM (inactive) in the test on A549; over 100 µM with HCT-15; > 100 µM (inactive) in the test on HCC 2998. For the same compound, the GI50 was > 100 µM (inactive) in the test with SN12C; > 100 µM (inactive) in the test with MCF7; > 100 µM (inactive) in the test with COLO 205; > 100 µM (inactive) in the test with SW-620; > 100 µM (inactive) with UO-31; 6.44 µM (inactive) in the test with TK-10. Besides, the GI50 in the test on MDA-MB-231, with PC-3 and in the test with OVCAR-5 was > 100 µM (inactive) in each case.
